Reference: US20090118204A1, “Methods and Compositions Related to Esculentoside A” (UNIVERSITY OF ROCHESTER, priority 2004, published 2009)
Entries after “also recorded” stand apart in the source; their conditions may differ. Like-named read-outs stand apart in the source and are kept apart here.

What was measured:
[1] = tested on: IR brain edema; conditions: cited from earlier work
[2] = tested on: C57BL/6 mice; conditions: 40 Gy whole head; EsA 10 mg/kg i.p., Dex 3 mg/kg i.v. before IR; brains taken 24 h later; P<0.05
Protocol: 16 hour before the whole heads of mice were irradiated at 40 Gy.
The mice without radiation served as negative controls. Twenty four hours later, the whole brain was taken out, weighed (wet weight), placed on aluminum foil and placed in an oven at 60° C. At different time points (10 min intervals for the first 2 hours and then 4, 6, 24 hr), the brains were weighed, and the results were expressed as: % water={(wet weight−dry weight)/wet weight}×100%. The higher the % water, the greater the severity of edema. Brain % water as a function of time provided a brain drying curve.

[3] = tested on: IL1β production in Raw 264.7 macrophage cells; experiment: IR-induced IL1β production (ELISA) in Raw 264.7; assay type: cell-based, mouse; conditions: 2 Gy, 24 hours culture
Protocol: IL1β is crucial mediator in early IR toxicity of both brain and soft tissue. […] The protective effect of EsA on early IR toxicity results in part from this effect. First we determined the optimal IR dose to induce IL1 production in Raw 264.7 macrophage cells. Equal numbers of cells were exposed to 0, 2, 4 and 8 Gy IR and 24 hours later, the conditioned media were harvested and 100 μl of media from each sample was measured for IL1β concentration by specific IL1β ELISA using monoclonal antibodies (purchased from R&D Systems, Inc). […] Therefore, 2 Gy was used as optimal IR dose for Raw 264.7 for this set of tests. The cells were treated with 0.1 or 1 μg/ml of EsA for 18 hours, irradiated at 2Gy and then cultured for another 24 hours. The media were measured for protein level of IL1β by ELISA.

[4] = target: T1, glucocorticoids receptor (GR) (Mus musculus, UniProt P06537); experiment: CAT reporter assay for hormone transactivity in E8.2.A3 cells, GR; assay type: cell-based; conditions: 44 hours; EsA 0.4 ng/ml to 40000 μg/ml; Dex 5×10^−7 M
T1 construct: expressed in transfected cells
T1 sequence (P06537 whole entry): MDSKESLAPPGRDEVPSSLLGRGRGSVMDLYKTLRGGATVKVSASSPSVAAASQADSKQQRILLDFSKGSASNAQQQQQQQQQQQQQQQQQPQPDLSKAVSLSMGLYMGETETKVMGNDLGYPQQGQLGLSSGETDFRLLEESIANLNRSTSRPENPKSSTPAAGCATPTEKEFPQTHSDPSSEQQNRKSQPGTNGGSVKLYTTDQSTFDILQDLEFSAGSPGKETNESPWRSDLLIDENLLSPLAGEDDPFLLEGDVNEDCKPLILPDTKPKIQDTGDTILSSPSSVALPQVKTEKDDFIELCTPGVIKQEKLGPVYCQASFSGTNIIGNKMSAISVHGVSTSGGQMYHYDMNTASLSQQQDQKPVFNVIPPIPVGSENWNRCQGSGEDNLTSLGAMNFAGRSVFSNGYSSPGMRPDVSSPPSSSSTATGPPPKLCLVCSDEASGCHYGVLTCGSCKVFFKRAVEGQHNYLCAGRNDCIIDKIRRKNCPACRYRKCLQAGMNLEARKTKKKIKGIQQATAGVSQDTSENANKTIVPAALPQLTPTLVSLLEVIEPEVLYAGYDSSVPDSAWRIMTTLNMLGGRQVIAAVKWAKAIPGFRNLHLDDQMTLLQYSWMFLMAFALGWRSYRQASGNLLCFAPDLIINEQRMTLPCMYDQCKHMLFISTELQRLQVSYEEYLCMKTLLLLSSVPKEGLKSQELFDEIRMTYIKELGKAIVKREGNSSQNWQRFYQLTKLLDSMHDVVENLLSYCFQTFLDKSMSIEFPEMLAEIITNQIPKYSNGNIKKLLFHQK
Protocol: (§1) Structurally, EsA has a certain similarity with steroidal hormone, especially a steroid-like back-bone. […] A sensitive reporter system for the hormone transactivity of glucocorticoids receptor (GR) and androgen receptor (AR) was set up as elucidated in the chart (FIG. 12). […] Individual clones with stably transfected mGR and CAT reporter gene were selected with 400 μg/ml of G418 in DMEM medium containing 3% charcoal stripped new born calf serum. […] The treated cells were washed with phosphate buffer saline (PBS) once. To each well, 0.25 ml of 0.25M Tris-HCl was added. The plates underwent 3 cycles of freeze and thaw at −70° C. and room temperature followed by heating at 65° C. for 10 min by floating the plates in a hot water bath. Then, 0.1 ml of cell lysate from each well was used for the CAT assay. […] Briefly, 100 μl of cell lysate from each well were mixed with 150 μl reaction solution (128 μl of 0.25 M Tris-HCl, pH 7.8, 2 μl of the commercial ^3H-acetyl CoA and 20 μl of 2 mg/ml chloramphenicol) in the scintillation vials. To each vial, 2 ml non-aqueous scintillation fluid was added and mixed with the reaction by shaking or vortexing. The vials were counted 3-6 times in a scintillation counter at regular intervals over 1 to 4 hours.

[5] = tested on: NO production in Raw264.7; experiment: IR-induced NO production (nitrite, Griess) in Raw264.7; assay type: cell-based, mouse; conditions: EsA 0.5 or 5 μg/ml added 8 hours before 4 Gy; media 24 hours later
Protocol: (§2) The anti-tumor effectiveness of IR is based in part on triggering the reactive oxygen species and free radicals in tumors; meanwhile, IR also damages normal tissues and causes unwanted toxicity.
(§3) The study was carried out in Raw264.7 cells that were irradiated with 0, 2, 4 and 8 Gy. […] At this optimal condition, EsA (0.5 or 5 μg/ml) was added 8 hours before the IR at 4 Gy and 24 hours later, the media was harvested and 100 μl of media was measured for NO content in the form of nitrite. […] To see if this inhibition was cell line specific, another human macrophage cell line THP-1 was examined.

[6] = tested on: sensitized mice; conditions: mouse, in vivo; cited from earlier work
[7] = tested on: E8.2.A3 cells; experiment: Morphological changes and cell death in reporter cells; assay type: cell-based, mouse; conditions: 44 hours, observed twice a day
[8] = target: T2, androgen receptor (AR) (Mus musculus, UniProt P19091); experiment: CAT reporter assay for hormone transactivity in E8.2.A3 cells, AR; assay type: cell-based; conditions: 44 hours; EsA 0.4 ng/ml to 40000 μg/ml; DHT 5×10^−7 M
T2 construct: contain high levels of AR; endogenous in cells; host or cells: E8.2.A3 cells (mouse L cell fibroblast variant)
T2 sequence (P19091 whole entry): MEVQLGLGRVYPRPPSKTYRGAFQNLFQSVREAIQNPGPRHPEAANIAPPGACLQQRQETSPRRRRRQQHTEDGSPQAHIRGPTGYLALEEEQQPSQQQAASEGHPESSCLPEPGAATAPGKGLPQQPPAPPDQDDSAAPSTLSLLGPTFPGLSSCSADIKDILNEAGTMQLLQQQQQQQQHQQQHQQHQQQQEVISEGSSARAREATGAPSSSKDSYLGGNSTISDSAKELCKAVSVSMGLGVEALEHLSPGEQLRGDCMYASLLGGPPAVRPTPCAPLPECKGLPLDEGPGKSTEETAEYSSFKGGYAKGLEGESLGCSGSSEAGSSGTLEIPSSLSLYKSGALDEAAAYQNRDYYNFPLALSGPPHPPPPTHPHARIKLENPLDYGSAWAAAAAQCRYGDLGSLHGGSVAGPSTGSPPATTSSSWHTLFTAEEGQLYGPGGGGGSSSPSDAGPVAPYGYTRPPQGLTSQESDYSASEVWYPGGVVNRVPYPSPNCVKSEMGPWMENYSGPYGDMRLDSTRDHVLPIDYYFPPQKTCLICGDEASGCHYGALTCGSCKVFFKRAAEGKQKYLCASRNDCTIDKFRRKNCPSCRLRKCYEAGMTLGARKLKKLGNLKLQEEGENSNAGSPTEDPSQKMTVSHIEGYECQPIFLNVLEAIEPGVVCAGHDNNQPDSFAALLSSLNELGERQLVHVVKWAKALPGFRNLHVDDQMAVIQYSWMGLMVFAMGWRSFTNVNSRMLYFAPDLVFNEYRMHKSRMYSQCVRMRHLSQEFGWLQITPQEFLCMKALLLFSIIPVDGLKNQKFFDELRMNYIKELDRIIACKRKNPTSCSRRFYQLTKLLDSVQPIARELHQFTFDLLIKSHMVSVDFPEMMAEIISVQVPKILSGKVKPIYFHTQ
Protocol: as §1

[9] = tested on: peritoneal macrophages; conditions: macrophages from mice pretreated with thioglycolate; cited from earlier work
[10] = tested on: TNF production by Raw264.7; experiment: TNF production by macrophages with LPS and radiation; assay type: cell-based, mouse; conditions: FIG. 31, LPS and radiation
[11] = target: T3, human recombinant COX-2 (Homo sapiens, UniProt P35354); experiment: Cayman COX Inhibitor Screening Assay, COX-2; assay type: biochemical; conditions: prostanoid quantified by EIA
T3 construct: purchased Cayman 560131
T3 sequence (P35354 18-604): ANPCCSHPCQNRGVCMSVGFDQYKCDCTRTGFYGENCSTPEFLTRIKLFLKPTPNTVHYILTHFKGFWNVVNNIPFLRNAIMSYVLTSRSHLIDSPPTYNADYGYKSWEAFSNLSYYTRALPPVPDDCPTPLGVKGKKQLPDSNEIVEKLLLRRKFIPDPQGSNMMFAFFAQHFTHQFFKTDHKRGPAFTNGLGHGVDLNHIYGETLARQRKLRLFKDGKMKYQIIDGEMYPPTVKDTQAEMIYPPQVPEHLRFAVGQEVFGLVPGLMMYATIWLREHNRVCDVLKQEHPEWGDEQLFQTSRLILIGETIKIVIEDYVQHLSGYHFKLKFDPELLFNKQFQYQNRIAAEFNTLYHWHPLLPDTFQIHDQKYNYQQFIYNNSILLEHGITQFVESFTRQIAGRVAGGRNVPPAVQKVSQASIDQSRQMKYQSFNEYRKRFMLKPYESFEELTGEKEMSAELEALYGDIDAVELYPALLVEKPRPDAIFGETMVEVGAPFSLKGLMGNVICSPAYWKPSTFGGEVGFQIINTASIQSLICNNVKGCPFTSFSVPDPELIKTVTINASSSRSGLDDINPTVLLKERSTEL
Source text: (§4) It is known that constitutive COX-1 and inducible COX-2 catalyze the production of prostaglandins (PGs) from arachidonic acid. The Cayman COX Inhibitor Screening Assay kit directly measures PGF2α produced by SnCl2 reduction of COX-derived PGH2. The prostanoid product is quantified via enzyme immunoassay (EIA) using a broadly specific antibody that binds to all the major prostaglandin compounds (FIG. 15A). To distinguish the inhibition of COX-1 from COX-2, both ovine COX-1 and human recombinant COX-2 enzymes were used as targets. […] EsA is a novel COX-2 inhibitor, which accounts for its observed protective effects on skin (FIGS. 5-7) and brain (FIGS. 8-9).

[12] = tested on: activated macrophages; conditions: cited from earlier work
[13] = tested on: NO production in THP-1; experiment: IR-induced NO production in THP-1; assay type: cell-based, human; conditions: 0.1, 0.5 and 5 μg/ml EsA; NO up-regulated 5 fold 4 hours after IR
Protocol: as §2, §3

[14] = tested on: autoimmunity animal model; conditions: in vivo; cited from earlier work
[15] = tested on: activated thymocytes; conditions: cited from earlier work
[16] = tested on: IL1α production by RAW264.7; experiment: IL1α production by macrophages; assay type: cell-based, mouse; conditions: FIG. 29, in vitro macrophages
[17] = cited from earlier work
[18] = tested on: granuloma induced by cotton pellet; conditions: cited from earlier work
[19] = tested on: mice; conditions: following LPS challenge; cited from earlier work
[20] = tested on: mouse; experiment: Alopecia and hair regrowth after 30 Gy irradiation; assay type: in vivo
[21] = tested on: VEGF production by mouse fibroblast L-929; experiment: VEGF production by fibroblasts; assay type: cell-based; conditions: FIG. 10
[22] = tested on: ICAM-1 and CD18; conditions: LPS-induced; cited from earlier work
[23] = tested on: IL1β production in A431 human epidermoid carcinoma cells; experiment: IR-induced IL1β production (ELISA) in A431; assay type: cell-based
[24] = tested on: C57BL/6 mice; experiment: IR-induced early soft tissue (skin) toxicity in mice; assay type: in vivo, mouse; conditions: for skin damage score: day 19 after 30 Gy single dose IR, EsA 10 mg/kg i.p., Celebrex 50 mg/kg intragastric, 16 h before then daily, Table 4 criteria 1.0 normal to 5.0 necrosis, control above 4.5
Protocol: EsA protects the soft tissue from IR-induced damage. IR sensitive and IL1β high expressing C57BL/6 mice are irradiated with 30 Gy and the skin damage is measured with a preclinical criteria (Table 4).
The effect of EsA was examined with this model system. […] The difference was statistically significant (FIG. 7).
A repeat experiment was performed with an increased number of mice (10 mice/group), and the EsA protective effect was confirmed.

[25] = tested on: prostaglandin E2 (PGE2), platelet-activating factor (PAF), and nitric oxide (NO); conditions: cited from earlier work
[26] = tested on: murine ears; conditions: induced by zylene, acute inflammation model; cited from earlier work
[27] = target: T4, ovine COX-1 (Ovis aries, UniProt P05979); experiment: Cayman COX Inhibitor Screening Assay, COX-1; assay type: biochemical; conditions: prostanoid quantified by EIA
T4 construct: purchased Cayman 560131
T4 sequence (P05979 25-600): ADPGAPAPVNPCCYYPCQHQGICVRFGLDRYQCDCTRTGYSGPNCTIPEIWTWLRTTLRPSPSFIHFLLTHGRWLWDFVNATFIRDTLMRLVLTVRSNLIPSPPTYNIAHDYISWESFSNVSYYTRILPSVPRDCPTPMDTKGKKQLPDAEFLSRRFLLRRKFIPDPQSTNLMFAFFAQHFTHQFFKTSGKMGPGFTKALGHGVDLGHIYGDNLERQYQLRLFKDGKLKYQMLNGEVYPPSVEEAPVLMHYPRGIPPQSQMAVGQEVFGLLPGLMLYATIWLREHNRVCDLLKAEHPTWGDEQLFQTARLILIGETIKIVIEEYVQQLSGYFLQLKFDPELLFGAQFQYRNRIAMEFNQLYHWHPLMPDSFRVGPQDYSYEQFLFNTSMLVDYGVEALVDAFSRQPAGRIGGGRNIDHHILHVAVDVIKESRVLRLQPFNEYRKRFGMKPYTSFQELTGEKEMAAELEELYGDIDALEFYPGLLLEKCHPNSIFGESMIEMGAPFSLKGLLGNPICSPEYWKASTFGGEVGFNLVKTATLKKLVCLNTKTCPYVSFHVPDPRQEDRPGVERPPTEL
Source text: as §4

[28] = tested on: Lewis' lung carcinoma cells; experiment: Tumor growth of Lewis' lung carcinoma in syngeneic mice; assay type: in vivo, mouse; conditions: daily for 20 days, same dose as in soft tissue protection
Source text: Considering that EsA is used as a radioprotector in patients with tumors, its effect on tumor growth is a critical issue for its application.

[29] = tested on: rat hind paws; conditions: cited from earlier work; for swelling of hind paws: induced by carrageenan
[30] = tested on: activated splenocytes; conditions: cited from earlier work
[31] = tested on: COX-2 transgenic mice; conditions: mouse, in vivo; cited from earlier work
[32] = relative long-term use (>2-3 weeks after IR)

CS(=O)(=O)Nc1ccc([N+](=O)[O-])cc1OC1CCCCC1 [NS-398]
induction of prostanoid and IR brain edema ([1]; Moore et al. 2004): blocked | IR toxicity in brain and soft tissue ([1]; mouse, in vivo): protected

COC(=O)[C@@]1(C)CC[C@]2(C(=O)O)CC[C@]3(C)C(=CC[C@@H]4[C@@]5(C)C[C@H](O)[C@H](O[C@@H]6OC[C@@H](O[C@@H]7O[C@H](CO)[C@@H](O)[C@H](O)[C@H]7O)[C@H](O)[C@H]6O)[C@@](C)(CO)[C@@H]5CC[C@]43C)[C@@H]2C1 [EsA, Esculentoside A]
brain edema (% water) [2]: reduction of brain edema was statistically significant; also recorded: less extensive brain edema; also recorded: can reduce IR-induced brain edema | IR-induced production of IL1β ([3]; EsA 0.1 μg/ml for 18 hours): dramatically inhibited; also recorded: reduced | IR-induced production of IL1β ([3]; EsA 1 μg/ml for 18 hours, P<0.01): reduced the IL1β to the basal level | glucocorticoidal hormone transactivity (CAT activity) [4]: neither androgen nor glucocorticoidal hormone transactivity | IR-induced NO production [5]: inhibited | serum hemolysin concentration [6]: markedly decreased | concentration at which death of cells was observed [7]: 40000 µg/mL | concentration with no morphological change of cells [7]: below 4 mg/ml | androgen hormone transactivity (CAT activity) [8]: neither androgen nor glucocorticoidal hormone transactivity | release of TNF, IL-1 and IL-6 [9]: significantly reduced | TNF production [10]: inhibitory effect | effect on COX-2 [11]: inhibited the COX-2 in a dose-dependent manner | macrophage functions (phagocytosis, antibody production, secretion of cytokines) [12]: diminished | reduction of NO production [13]: 3 fold | inflammation of joint and viscera [14]: decreased | apoptosis of activated thymocytes [15]: accelerated | IL1α production [16]: inhibitory effect | water-solubility [17]: high water-solubility | proliferation of granuloma [18]: significantly inhibited | TNF, IL-1 and IL-6 levels in the sera [19]: dose-dependently decreased | hair regrowth / duration of alopecia ([20]; 30 Gy, Celebrex i.g. 50 mg/kg for 20 days): after two weeks | recovery of cranial alopecia ([20]; EsA compared with celebrex): recovered more quickly and completely | VEGF production [21]: inhibitory effect | expression of adhesion molecules ICAM-1 and CD18 [22]: suppressed | IL1β induced by IR ([23]; EsA 0.1 μg/ml, 4 Gy, P<0.01): inhibited; also recorded: reduced | IL1β production induced by IR in vitro in epithelial cells ([23]; FIG. 27): inhibitory effect | protection of soft tissue ([24]; 4 weeks after 30 Gy IR, same dosing): effectively protected the soft tissue | skin damage score [24]: about 2 | early IR skin toxicity [24, 32]: prevented | second wave of IL1β [24, 32]: blocked | signs of sickness ([24]; whole course of EsA treatment): no signs of sickness were observed | production of PGE2, PAF and NO [25]: inhibited | swelling of ears [26]: markedly lowered | effect on COX-1 [27]: no effect | tumor growth [28]: little effect on tumor growth | duration of the effects ([29]; acute inflammation models): more than 5 hours | swelling of hind paws ([29]; adrenalectomised rat): suppressed | swelling of hind paws [29]: inhibited | production of IL-2 [30]: inhibited

COc1ccc2c(c1)c(CC(=O)O)c(C)n2C(=O)c1ccc(Cl)cc1 [indomethacin]
microvessel density [31]: strongly decreased | tumor progression [31]: inhibited | upregulation of angiogenic regulatory genes in mammary tissue [31]: inhibited

Cc1ccc(-c2cc(C(F)(F)F)nn2-c2ccc(S(N)(=O)=O)cc2)cc1 [Celebrex, celecoxib, reference compound]
skin damage score [24]: about 3
